These are literature values, as cited in patent US20030191121A1, “Piperazine carboxamide intermediates of HIV protease inhibitors and processes for their preparation” (priority 2001, published 2003).

The subject of the data set is HIV. To be noted: HIV-infected patients, in combination with nucleoside reverse transcriptase inhibitors.

Consider `CC(C)(C)NC(=O)[C@@H]1CN(Cc2cccnc2)CCN1C[C@@H](O)C[C@@H](Cc1ccccc1)C(=O)N[C@H]1c2ccccc2C[C@H]1O` [Indinavir, indinavir], for which the “reducing HIV viral loads and increasing CD4 cell counts” value is “highly effective”.
